From patent publication US20250290117A1, “MOLECULAR PHENOTYPIC ANTIMICROBIAL SUSCEPTIBILITY TESTING” (priority 2024, published 2025)

Columns and labels:
Escherichia coli = assay: Molecular phenotypic antimicrobial susceptibility test (extraction or DNA purification prior to PCR); format: cell-based
Summary of the method: (§1)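 Patient specimens in boric acid preservative were culture-incubated, diluted to 0.5 McFarland and exposed for 12-16 hours to antimicrobials in broth at their sensitivity breakpoint concentration(s), with a no-drug well for pathogen load. Growth was then measured by semi-quantitative PCR, either after DNA purification (e.g. magnetic beads) or directly after lysis-buffer treatment without extraction.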

E. coli [1] = assay: Molecular phenotypic antimicrobial susceptibility test, specimen with two detected pathogens incubated together without isolation; format: cell-based, Escherichia coli; conditions: E. coli in specimen with two detected pathogens (E. coli and M. morganii) incubated together; for Ct of Sensitive Breakpoint: Ct of controls (average) 15.93; for Molecular Antimicrobial Susceptibility Result: at sensitive breakpoint
Summary of the method: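 Specimen in boric acid; pathogens identified by PCR while a parallel aliquot grew 4-6 h in liquid medium. With >10,000 cells/mL detected, culture diluted to 0.5 McFarland and exposed to antimicrobials in broth (e.g. Mueller Hinton) at breakpoint concentrations; both pathogens incubated together unisolated, growth read by molecular methods against medium-only wells.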

E. coli [2] = assay: Molecular phenotypic antimicrobial susceptibility test with direct PCR (no extraction DNA purification step); format: cell-based, Escherichia coli; conditions: E. coli isolate JJ1887, direct PCR; for Ct at Sensitive Breakpoint: Ct at control (average) 12.832; for Molecular Antimicrobial Susceptibility Result: at sensitive breakpoint
[3] = test system: pathogens of clinical samples; assay: Molecular phenotypic antimicrobial susceptibility test of clinical samples, direct PCR without a separate DNA purification step (Table 6); format: cell-based
Summary of the method: as §1

[4] = E. coli isolate 4, at sensitive breakpoint
[5] = E. coli isolate 5, Ct at control (average) 21.0933
[6] = E. coli isolate 5, at sensitive breakpoint
[7] = E. coli, clinical sample of r10-r24
[8] = E. coli, clinical sample of r158-r172
[9] = K. aerogenes, clinical sample of r136-r150
[10] = K. pneumoniae, clinical sample of r121-r135
[11] = M. morganii, clinical sample of r55-r69
[12] = M. morganii, clinical sample of r70-r84
[13] = P. mirabilis, clinical sample of r25-r39
[14] = P. mirabilis, clinical sample of r40-r54

| Molecule | Molecular Antimicrobial Susceptibility Result (Escherichia coli; [4]) | Ct at Sensitive Breakpoint (Escherichia coli; [5]) | Molecular Antimicrobial Susceptibility Result (Escherichia coli; [6]) | Ct of Sensitive Breakpoint (E. coli [1]) | Molecular Antimicrobial Susceptibility Result (E. coli [1]) | Ct at Sensitive Breakpoint (E. coli [2]) | Molecular Antimicrobial Susceptibility Result (E. coli [2]) | Molecular Antibiotic Susceptibility Result [3, 7] | Molecular Antibiotic Susceptibility Result [3, 8] | Molecular Antibiotic Susceptibility Result [3, 9] | Molecular Antibiotic Susceptibility Result [3, 10] | Molecular Antibiotic Susceptibility Result [3, 11] | Molecular Antibiotic Susceptibility Result [3, 12] | Molecular Antibiotic Susceptibility Result [3, 13] | Molecular Antibiotic Susceptibility Result [3, 14] | also measured |
| --- | --- | --- | --- | --- | --- | --- | --- | --- | --- | --- | --- | --- | --- | --- | --- | --- |
| Trimethoprim/Sulfamethoxazole [TMP/SMX] | Resistant | 29.12 | Sensitive (Antimicrobial wells with pathogen load detected below the control wells (typically >2 cycle thresholds later) may be reported as Sensitive) | 27.67 | Sensitive (Antimicrobial wells with pathogen load detected below the control wells (typically >2 cycle thresholds later) may be reported as Sensitive) | 13.414 | Resistant | Sensitive (Antimicrobial wells with pathogen load detected below the control wells (typically >2 cycle thresholds later) may be reported as Sensitive) | Sensitive (Antimicrobial wells with pathogen load detected below the control wells (typically >2 cycle thresholds later) may be reported as Sensitive) | Sensitive (Antimicrobial wells with pathogen load detected below the control wells (typically >2 cycle thresholds later) may be reported as Sensitive) | Sensitive (Antimicrobial wells with pathogen load detected below the control wells (typically >2 cycle thresholds later) may be reported as Sensitive) | Sensitive (Antimicrobial wells with pathogen load detected below the control wells (typically >2 cycle thresholds later) may be reported as Sensitive) | Sensitive (Antimicrobial wells with pathogen load detected below the control wells (typically >2 cycle thresholds later) may be reported as Sensitive) | Sensitive (Antimicrobial wells with pathogen load detected below the control wells (typically >2 cycle thresholds later) may be reported as Sensitive) | Sensitive (Antimicrobial wells with pathogen load detected below the control wells (typically >2 cycle thresholds later) may be reported as Sensitive) | Ct at Sensitive Breakpoint (Escherichia coli; E. coli isolate 1, Ct at control (average) 21.238): 32.294; Molecular Antimicrobial Susceptibility Result (Escherichia coli; E. coli isolate 1, at sensitive breakpoint): Sensitive (Antimicrobial wells with pathogen load detected below the control wells (typically >2 cycle thresholds later) may be reported as Sensitive); Ct at Sensitive Breakpoint (Escherichia coli; E. coli isolate 2, Ct at control (average) 21.270): 28.875; Molecular Antimicrobial Susceptibility Result (Escherichia coli; E. coli isolate 2, at sensitive breakpoint): Sensitive (Antimicrobial wells with pathogen load detected below the control wells (typically >2 cycle thresholds later) may be reported as Sensitive); Ct at Sensitive Breakpoint (Escherichia coli; E. coli isolate 3, Ct at control (average) 22.0995): 30.605; Molecular Antimicrobial Susceptibility Result (Escherichia coli; E. coli isolate 3, at sensitive breakpoint): Sensitive (Antimicrobial wells with pathogen load detected below the control wells (typically >2 cycle thresholds later) may be reported as Sensitive); Ct ([3]; E. coli, clinical sample of r10-r24, Ct control avg 12.97): 24.066; Ct ([3]; E. coli, clinical sample of r158-r172, Ct control avg 12.894): 28.739; Ct ([3]; K. aerogenes, clinical sample of r136-r150, Ct control avg 13.854): 30.511; Ct ([3]; K. pneumoniae, clinical sample of r121-r135, Ct control avg […]): 29.719; Ct ([3]; M. morganii, clinical sample of r55-r69, Ct control avg 12.09): 22.916; Ct ([3]; M. morganii, clinical sample of r70-r84, Ct control avg 11.677): 22.281; Ct ([3]; P. mirabilis, clinical sample of r25-r39, Ct control avg 11.801): 23.476; Ct ([3]; P. mirabilis, clinical sample of r40-r54, Ct control avg 10.06): 25.628; Molecular Antibiotic Susceptibility Result ([3]; S. aureus, clinical sample of r85-r92): Sensitive (Antimicrobial wells with pathogen load detected below the control wells (typically >2 cycle thresholds later) may be reported as Sensitive); Ct ([3]; S. aureus, clinical sample of r85-r92, Ct control avg 20.309): 28.965 |
| CO/N=C(\C(=O)N[C@@H]1C(=O)N2C(C(=O)[O-])=C(C[N+]3(C)CCCC3)CS[C@H]12)c1csc(N)n1 [Cefepime] | Resistant | 26.77 | Sensitive (Antimicrobial wells with pathogen load detected below the control wells (typically >2 cycle thresholds later) may be reported as Sensitive) | 26.80 | Sensitive (Antimicrobial wells with pathogen load detected below the control wells (typically >2 cycle thresholds later) may be reported as Sensitive) | 12.796 | Resistant | Sensitive (Antimicrobial wells with pathogen load detected below the control wells (typically >2 cycle thresholds later) may be reported as Sensitive) | Sensitive (Antimicrobial wells with pathogen load detected below the control wells (typically >2 cycle thresholds later) may be reported as Sensitive) | Sensitive (Antimicrobial wells with pathogen load detected below the control wells (typically >2 cycle thresholds later) may be reported as Sensitive) | Sensitive (Antimicrobial wells with pathogen load detected below the control wells (typically >2 cycle thresholds later) may be reported as Sensitive) | Sensitive (Antimicrobial wells with pathogen load detected below the control wells (typically >2 cycle thresholds later) may be reported as Sensitive) | Sensitive (Antimicrobial wells with pathogen load detected below the control wells (typically >2 cycle thresholds later) may be reported as Sensitive) | Sensitive (Antimicrobial wells with pathogen load detected below the control wells (typically >2 cycle thresholds later) may be reported as Sensitive) | Sensitive (Antimicrobial wells with pathogen load detected below the control wells (typically >2 cycle thresholds later) may be reported as Sensitive) | Ct at Sensitive Breakpoint (Escherichia coli; E. coli isolate 4, Ct at control (average) 17.5733): 17.09 |
